Assay results: patent publication US10392391B2 (Vertex Pharmaceuticals Incorporated, priority 2012, dated 2019)
Read-outs that look alike come from different tables or passages of the source.

Target: ATR kinase (full-length ATR) (Homo sapiens (Human), UniProt Q13535)
Test: ATR inhibition assay (radioactive-phosphate incorporation)
Assay type: biochemical
Method in brief: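 Ki(app) was fitted by non-linear regression to background-corrected initial rates. Full-length ATR (5 nM) phosphorylated 800 μM peptide using 10 μM [γ-33P]ATP at 25° C in Tris/HCl pH 7.5 buffer with MgCl2, DTT and 7% DMSO. After 10-minute compound pre-incubation and 24-hour reaction, phosphocellulose filters were scintillation counted.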

[1] = Ki(app), 5 nM full-length ATR, 10 μM ATP, 25° C.

ATR kinase (full-length ATR), sequence (Q13535 whole entry): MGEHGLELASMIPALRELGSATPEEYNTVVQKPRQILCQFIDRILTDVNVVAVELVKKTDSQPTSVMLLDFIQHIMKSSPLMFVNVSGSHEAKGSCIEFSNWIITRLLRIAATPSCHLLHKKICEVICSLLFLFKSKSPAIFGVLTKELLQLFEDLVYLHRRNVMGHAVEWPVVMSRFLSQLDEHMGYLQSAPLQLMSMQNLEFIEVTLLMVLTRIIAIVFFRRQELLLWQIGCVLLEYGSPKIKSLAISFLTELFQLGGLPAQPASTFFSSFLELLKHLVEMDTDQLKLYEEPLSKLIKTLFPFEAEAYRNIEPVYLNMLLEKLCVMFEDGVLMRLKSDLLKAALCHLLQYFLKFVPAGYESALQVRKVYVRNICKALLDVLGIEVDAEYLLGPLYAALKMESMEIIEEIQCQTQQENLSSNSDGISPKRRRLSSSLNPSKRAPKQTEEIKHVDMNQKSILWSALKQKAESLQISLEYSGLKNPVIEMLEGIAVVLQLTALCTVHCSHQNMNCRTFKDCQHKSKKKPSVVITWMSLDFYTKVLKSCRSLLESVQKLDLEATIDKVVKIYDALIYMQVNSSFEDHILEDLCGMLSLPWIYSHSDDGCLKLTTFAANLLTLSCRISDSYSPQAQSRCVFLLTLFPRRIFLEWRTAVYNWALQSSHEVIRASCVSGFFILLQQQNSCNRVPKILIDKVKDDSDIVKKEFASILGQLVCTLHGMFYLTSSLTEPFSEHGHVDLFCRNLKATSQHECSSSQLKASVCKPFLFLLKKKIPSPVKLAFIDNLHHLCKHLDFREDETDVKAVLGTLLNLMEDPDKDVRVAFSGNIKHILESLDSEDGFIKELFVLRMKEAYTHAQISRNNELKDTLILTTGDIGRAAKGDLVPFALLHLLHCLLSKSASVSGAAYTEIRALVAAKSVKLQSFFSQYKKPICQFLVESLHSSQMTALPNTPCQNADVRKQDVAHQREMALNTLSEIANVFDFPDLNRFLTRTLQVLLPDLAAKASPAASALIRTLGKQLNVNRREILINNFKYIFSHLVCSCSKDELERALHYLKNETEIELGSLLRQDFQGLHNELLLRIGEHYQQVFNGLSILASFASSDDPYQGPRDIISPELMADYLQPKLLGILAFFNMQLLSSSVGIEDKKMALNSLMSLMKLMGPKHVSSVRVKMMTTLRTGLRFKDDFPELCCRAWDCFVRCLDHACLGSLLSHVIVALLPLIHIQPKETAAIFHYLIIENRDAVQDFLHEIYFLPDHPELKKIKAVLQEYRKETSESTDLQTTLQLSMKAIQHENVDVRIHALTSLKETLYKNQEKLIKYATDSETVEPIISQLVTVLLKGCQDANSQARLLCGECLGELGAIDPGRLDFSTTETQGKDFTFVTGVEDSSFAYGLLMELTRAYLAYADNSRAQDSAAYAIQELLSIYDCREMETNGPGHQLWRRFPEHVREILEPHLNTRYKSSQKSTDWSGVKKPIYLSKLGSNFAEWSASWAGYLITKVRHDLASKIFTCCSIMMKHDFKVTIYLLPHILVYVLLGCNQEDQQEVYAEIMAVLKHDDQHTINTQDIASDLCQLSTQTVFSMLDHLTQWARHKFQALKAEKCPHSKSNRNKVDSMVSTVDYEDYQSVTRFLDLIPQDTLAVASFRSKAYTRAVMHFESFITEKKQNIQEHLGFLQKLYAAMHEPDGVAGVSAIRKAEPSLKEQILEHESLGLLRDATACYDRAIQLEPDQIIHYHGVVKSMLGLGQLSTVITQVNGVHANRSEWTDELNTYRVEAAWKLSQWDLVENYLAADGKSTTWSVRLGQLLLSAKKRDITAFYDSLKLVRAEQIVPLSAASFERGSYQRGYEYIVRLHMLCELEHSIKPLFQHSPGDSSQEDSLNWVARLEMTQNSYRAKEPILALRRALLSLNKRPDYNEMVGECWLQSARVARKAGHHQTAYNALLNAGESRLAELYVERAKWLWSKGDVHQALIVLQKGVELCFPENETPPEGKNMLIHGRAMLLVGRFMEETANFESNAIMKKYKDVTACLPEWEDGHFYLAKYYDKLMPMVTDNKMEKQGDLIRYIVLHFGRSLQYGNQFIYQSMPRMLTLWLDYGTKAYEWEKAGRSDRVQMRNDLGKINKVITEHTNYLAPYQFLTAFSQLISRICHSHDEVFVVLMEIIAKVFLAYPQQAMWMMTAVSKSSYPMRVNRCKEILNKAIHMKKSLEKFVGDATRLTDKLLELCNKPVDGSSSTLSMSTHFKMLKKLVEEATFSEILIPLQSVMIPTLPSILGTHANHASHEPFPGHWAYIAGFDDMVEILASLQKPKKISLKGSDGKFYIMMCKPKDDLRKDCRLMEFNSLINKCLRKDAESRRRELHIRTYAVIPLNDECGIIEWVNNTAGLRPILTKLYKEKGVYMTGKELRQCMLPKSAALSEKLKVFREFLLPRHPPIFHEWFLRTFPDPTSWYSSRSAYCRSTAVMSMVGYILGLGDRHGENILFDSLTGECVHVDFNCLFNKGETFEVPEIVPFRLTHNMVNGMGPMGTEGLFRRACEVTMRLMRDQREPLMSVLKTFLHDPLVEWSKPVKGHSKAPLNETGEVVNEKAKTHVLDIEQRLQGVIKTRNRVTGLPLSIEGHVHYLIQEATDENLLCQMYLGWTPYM

Ki [1] | Ki | SMILES
10 to 1000 nM |  | CC1(N2CCN(c3ccncc3NC(=O)c3c(N)nn4cc(F)cnc34)CC2)COC1 [I-N-62, 2-amino-6-fluoro-N-(4-(4-(3-methyloxetan-3-yl)piperazin-1-yl)pyridin-3-yl)pyrazolo[1,5-a]pyrimidine-3-carboxamide]
10 to 1000 nM |  | CN1CCN2CCN(c3ccncc3NC(=O)c3c(N)nn4cc(F)cnc34)CC2C1=O (stereo not drawn) [I-N-233, 2-amino-6-fluoro-N-(4-(8-methyl-9-oxohexahydro-1H-pyrazino[1,2-a]pyrazin-2(6H)-yl)pyridin-3-yl)pyrazolo[1,5-a]pyrimidine-3-carboxamide]
10 to 1000 nM |  | CN1CCN(C(=O)N2CCC(c3ccncc3NC(=O)c3c(N)nn4cc(F)cnc34)CC2)CC1 [I-C-17, 2-amino-6-fluoro-N-(4-(1-(4-methylpiperazine-1-carbonyl)piperidin-4-yl)pyridin-3-yl)pyrazolo[1,5-a]pyrimidine-3-carboxamide]
10 to 1000 nM |  | COCCOc1ccncc1NC(=O)c1c(N)nn2cc(Cl)cnc12 [I-O-55, 2-amino-6-chloro-N-(4-(2-methoxyethoxy)pyridin-3-yl)pyrazolo[1,5-a]pyrimidine-3-carboxamide]
10 to 1000 nM |  | Nc1nn2cc(F)cnc2c1C(=O)Nc1cnccc1N1CCN(S(=O)(=O)C2COC2)CC1 [I-N-195, 2-amino-6-fluoro-N-(4-(4-(oxetan-3-ylsulfonyl)piperazin-1-yl)pyridin-3-yl)pyrazolo[1,5-a]pyrimidine-3-carboxamide]
 | 1000 to 5000 nM | CNCCc1cnn(-c2ccncc2NC(=O)c2c(N)nn3cc(F)cnc23)c1 [I-N-8, 2-amino-6-fluoro-N-(4-(4-(2-(methylamino)ethyl)-1H-pyrazol-1-yl)pyridin-3-yl)pyrazolo[1,5-a]pyrimidine-3-carboxamide]
10 to 1000 nM |  | Nc1nn2cc(F)cnc2c1C(=O)Nc1cncc(F)c1N1CCC(OCCN2CCCC2)CC1 [I-N-167, 2-amino-6-fluoro-N-(5-fluoro-4-(4-(2-(pyrrolidin-1-yl)ethoxy)piperidin-1-yl)pyridin-3-yl)pyrazolo[1,5-a]pyrimidine-3-carboxamide]
10 to 1000 nM |  | CC(C)(O)C1CCN(c2ccncc2NC(=O)c2c(N)nn3cc(Cl)cnc23)CC1 [I-N-69, 2-amino-6-chloro-N-(4-(4-(2-hydroxypropan-2-yl)piperidin-1-yl)pyridin-3-yl)pyrazolo[1,5-a]pyrimidine-3-carboxamide]
10 to 1000 nM |  | Nc1nn2cc(F)cnc2c1C(=O)Nc1cnccc1-c1ccc(C(=O)N2CCNCC2)cc1 [I-C-44, 2-amino-6-fluoro-N-(4-(4-(piperazine-1-carbonyl)phenyl)pyridin-3-yl)pyrazolo[1,5-a]pyrimidine-3-carboxamide]
10 to 1000 nM |  | COc1cncc(NC(=O)c2c(N)nn3cc(F)cnc23)c1-c1cccnc1 [I-C-82, 2-amino-6-fluoro-N-(5′-methoxy-[3,4′-bipyridin]-3′-yl)pyrazolo[1,5-a]pyrimidine-3-carboxamide]
10 to 1000 nM |  | COC1CN(C(=O)C2CCN(c3ccncc3NC(=O)c3c(N)nn4cc(F)cnc34)CC2)C1 [I-G-78, 2-amino-6-fluoro-N-(4-(4-(3-methoxyazetidine-1-carbonyl)piperidin-1-yl)pyridin-3-yl)pyrazolo[1,5-a]pyrimidine-3-carboxamide]
10 to 1000 nM |  | CC(=O)N1CCC(c2ccncc2NC(=O)c2c(N)nn3cc(F)cnc23)CC1 [I-C-69, N-(4-(1-acetylpiperidin-4-yl)pyridin-3-yl)-2-amino-6-fluoropyrazolo[1,5-a]pyrimidine-3-carboxamide]
10 to 1000 nM |  | Nc1nn2cc(F)cnc2c1C(=O)Nc1cncc(F)c1N1CCC(C(=O)N2CC(N3CCCCC3)C2)CC1 [I-G-57, 2-amino-6-fluoro-N-(5-fluoro-4-(4-(3-(piperidin-1-yl)azetidine-1-carbonyl)piperidin-1-yl)pyridin-3-yl)pyrazolo[1,5-a]pyrimidine-3-carboxamide]
10 to 1000 nM |  | Nc1nn2cc(F)cnc2c1C(=O)Nc1cnccc1Oc1cccnc1 [I-O-7, 2-amino-6-fluoro-N-(4-(pyridin-3-yloxy)pyridin-3-yl)pyrazolo[1,5-a]pyrimidine-3-carboxamide]
10 to 1000 nM |  | C[N+]1([O-])CCc2c(cncc2NC(=O)c2c(N)nn3cc(F)cnc23)C1 (stereo not drawn) [I-C-9, 5-(2-amino-6-fluoropyrazolo[1,5-a]pyrimidine-3-carboxamido)-2-methyl-1,2,3,4-tetrahydro-2,7-naphthyridine 2-oxide]
10 to 1000 nM |  | Nc1nn2cc(Cl)cnc2c1C(=O)Nc1cnccc1N1CCCC(N)C1 (stereo not drawn) [I-N-55, 2-amino-N-(4-(3-aminopiperidin-1-yl)pyridin-3-yl)-6-chloropyrazolo[1,5-a]pyrimidine-3-carboxamide]
10 to 1000 nM |  | CN(C)CCOCCOc1ccncc1NC(=O)c1c(N)nn2cc(Cl)cnc12 [I-O-47, 2-amino-6-chloro-N-(4-(2-(2-(dimethylamino)ethoxy)ethoxy)pyridin-3-yl)pyrazolo[1,5-a]pyrimidine-3-carboxamide]

Ki [1] | Ki | SMILES
< 10 nM |  | COCCOc1ccncc1NC(=O)c1c(N)nn2cc(CC#N)cnc12 [I-O-29, 2-amino-6-(cyanomethyl)-N-(4-(2-methoxyethoxy)pyridin-3-yl)pyrazolo[1,5-a]pyrimidine-3-carboxamide]
10 to 1000 nM |  | N#CCc1cnc2c(C(=O)Nc3cnccc3N3CCC(N)CC3)c(N)nn2c1 [I-N-2, 2-amino-N-(4-(4-aminopiperidin-1-yl)pyridin-3-yl)-6-(cyanomethyl)pyrazolo[1,5-a]pyrimidine-3-carboxamide]
10 to 1000 nM |  | Cc1ncc(-c2ccncc2NC(=O)c2c(N)nn3cc(F)cnc23)n1C [I-C-77, 2-amino-N-(4-(1,2-dimethyl-1H-imidazol-5-yl)pyridin-3-yl)-6-fluoropyrazolo[1,5-a]pyrimidine-3-carboxamide]
10 to 1000 nM |  | Nc1nn2cc(F)cnc2c1C(=O)Nc1cnccc1OC1COC1 [I-O-92, 2-amino-6-fluoro-N-(4-(oxetan-3-yloxy)pyridin-3-yl)pyrazolo[1,5-a]pyrimidine-3-carboxamide]
10 to 1000 nM |  | CC(C)N1CCN(c2ccncc2NC(=O)c2c(N)nn3cc(F)cnc23)CC1 [I-N-4, 2-amino-6-fluoro-N-(4-(4-isopropylpiperazin-1-yl)pyridin-3-yl)pyrazolo[1,5-a]pyrimidine-3-carboxamide]
< 10 nM |  | N#CCc1cnc2c(C(=O)Nc3cnccc3Oc3ccccc3)c(N)nn2c1 [I-O-25, 2-amino-6-(cyanomethyl)-N-(4-phenoxypyridin-3-yl)pyrazolo[1,5-a]pyrimidine-3-carboxamide]
10 to 1000 nM |  | CN1CCN(c2ccncc2NC(=O)c2c(N)nn3cc(Cl)cnc23)CC1(C)C [I-N-53, 2-amino-6-chloro-N-(4-(3,3,4-trimethylpiperazin-1-yl)pyridin-3-yl)pyrazolo[1,5-a]pyrimidine-3-carboxamide]
10 to 1000 nM |  | Nc1nn2cc(F)cnc2c1C(=O)Nc1cnccc1N1CCN(C2CC2)CC1 [I-N-33, 2-amino-N-(4-(4-cyclopropylpiperazin-1-yl)pyridin-3-yl)-6-fluoropyrazolo[1,5-a]pyrimidine-3-carboxamide]
 | 10 to 1000 nM | CN1CC[C@@H](OC2CCN(c3ccncc3NC(=O)c3c(N)nn4cc(F)cnc34)CC2)C1 [I-N-131]
10 to 1000 nM |  | CN1CCN(CC2CCN(c3c(F)cncc3NC(=O)c3c(N)nn4cc(F)cnc34)CC2)C(=O)C1 [I-N-193, 2-amino-6-fluoro-N-(5-fluoro-4-(4-((4-methyl-2-oxopiperazin-1-yl)methyl)piperidin-1-yl)pyridin-3-yl)pyrazolo[1,5-a]pyrimidine-3-carboxamide]
10 to 1000 nM |  | Nc1nn2cc(Cl)cnc2c1C(=O)Nc1cnccc1OC1CNC1 [I-O-73, 2-amino-N-(4-(azetidin-3-yloxy)pyridin-3-yl)-6-chloropyrazolo[1,5-a]pyrimidine-3-carboxamide]
10 to 1000 nM |  | Nc1nn2cc(F)cnc2c1C(=O)Nc1cnccc1-c1ccc(S(=O)(=O)N2CCC2)cc1 [I-C-64, 2-amino-N-(4-(4-(azetidin-1-ylsulfonyl)phenyl)pyridin-3-yl)-6-fluoropyrazolo[1,5-a]pyrimidine-3-carboxamide]
10 to 1000 nM |  | Nc1nn2cc(Cl)cnc2c1C(=O)Nc1cnccc1N1CCC(N2CC[C@@H](F)C2)CC1 [I-N-98, (R)-2-amino-6-chloro-N-(4-(4-(3-fluoropyrrolidin-1-yl)piperidin-1-yl)pyridin-3-yl)pyrazolo[1,5-a]pyrimidine-3-carboxamide]
10 to 1000 nM |  | Nc1nn2cc(F)cnc2c1C(=O)Nc1cnccc1N1CCN(S(=O)(=O)C2CCOC2)CC1 (stereo not drawn) [I-N-179, 2-amino-6-fluoro-N-(4-(4-((tetrahydrofuran-3-yl)sulfonyl)piperazin-1-yl)pyridin-3-yl)pyrazolo[1,5-a]pyrimidine-3-carboxamide]
10 to 1000 nM |  | CN1CCN(c2ccncc2NC(=O)c2c(N)nn3cc(Cl)cnc23)CC1 [I-N-59, 2-amino-6-chloro-N-(4-(4-methylpiperazin-1-yl)pyridin-3-yl)pyrazolo[1,5-a]pyrimidine-3-carboxamide]
10 to 1000 nM |  | Nc1nn2cc(Cl)cnc2c1C(=O)Nc1cnccc1OC1CCOCC1 [I-O-61, 2-amino-6-chloro-N-(4-((tetrahydro-2H-pyran-4-yl)oxy)pyridin-3-yl)pyrazolo[1,5-a]pyrimidine-3-carboxamide]
10 to 1000 nM |  | Nc1nn2cc(F)cnc2c1C(=O)Nc1cncc(Cl)c1N1CCC(C(=O)N2CCNCC2)CC1 [I-G-48, 2-amino-N-(5-chloro-4-(4-(piperazine-1-carbonyl)piperidin-1-yl)pyridin-3-yl)-6-fluoropyrazolo[1,5-a]pyrimidine-3-carboxamide]

SMILES | Ki [1] | Ki
Nc1nn2cc(F)cnc2c1C(=O)Nc1cnccc1O[C@@H]1CN2CCC1CC2 [I-O-10, (S)-2-amino-6-fluoro-N-(4-(quinuclidin-3-yloxy)pyridin-3-yl)pyrazolo[1,5-a]pyrimidine-3-carboxamide] | 10 to 1000 nM | 
CC(C)(C)Oc1ccncc1NC(=O)c1c(N)nn2cc(F)cnc12 [I-O-88, 2-amino-N-(4-(tert-butoxy)pyridin-3-yl)-6-fluoropyrazolo[1,5-a]pyrimidine-3-carboxamide] | 10 to 1000 nM | 
